Values of other authors as cited in patent US20260137743A1, “METHODS OF RELIEVING PAIN” (Infinitum Health, LLC, priority 2023, published 2026).

Settings: isolated from Incarvillea sinensis

For `COc1cc([C@H]2[C@H](C(=O)O[C@@H]3C[C@@H]4[C@@H](CN(C)C[C@@H]4C)[C@@H]3C)[C@H](c3ccc(O)c(OC)c3)[C@H]2C(=O)O[C@@H]2C[C@@H]3[C@@H](CN(C)C[C@@H]3C)[C@@H]2C)ccc1O` [Incarvillateine, incarvillateine], which “analgesic (pain relief) activity” value is on record?
The value was “significant analgesic (pain relief) activity”.
